Experimental data taken from ChEMBL document CHEMBL1201862, “PubChem BioAssay data set” (2004).
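48-hour exposure; five concentrations; linearly interpolated endpoints. GI50 marks 50% less growth.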 Calls of active or inactive are those of the source. No stated cut-off is given here; in the data, active = GI50 up to about 1.1 µM and inactive = higher.

Key:
Test in all cases: inhibition of tumour cell growth, NCI panel, 48 h
CCRF-CEM = test system: CCRF-CEM
SF-268 = test system: SF-268
OVCAR-5 = test system: OVCAR-5
SK-MEL-28 = test system: SK-MEL-28
ACHN = test system: ACHN
BT-549 = test system: BT-549
SF-539 = test system: SF-539
SK-OV-3 = test system: SK-OV-3
MOLT-4 = test system: MOLT-4
DU-145 = test system: DU-145
OVCAR-8 = test system: OVCAR-8
UACC-62 = test system: UACC-62
MDA-N = test system: MDA-N
K562 = test system: K562
OVCAR-3 = test system: OVCAR-3
M14 = test system: M14
UO-31 = test system: UO-31
TK-10 = test system: TK-10
Hs-578T = test system: Hs-578T
CAKI-1 = test system: CAKI-1

Measured: GI50

O=C(/C=C/c1ccc(O)c(O)c1)OCCc1ccc2ccccc2c1
inactive: CCRF-CEM 4.63 µM | SF-268 10.9 µM | OVCAR-5 16.1 µM | SK-MEL-28 9.14 µM | ACHN 2.86 µM | BT-549 2.91 µM | SF-539 5.83 µM | SK-OV-3 13.5 µM | MOLT-4 2.2 µM | DU-145 11.9 µM | OVCAR-8 10.4 µM | UACC-62 3.69 µM | MDA-N 2.38 µM | K562 2.99 µM | OVCAR-3 3.26 µM | M14 4.95 µM | UO-31 3.19 µM | TK-10 7.11 µM | Hs-578T 4.79 µM

COC(=O)C(Cc1ccccc1)NC(=O)C(CCCNC(=N)N)NC(=O)OCc1ccccc1 (centres undefined)
inactive: CCRF-CEM > 100 µM | CAKI-1 > 100 µM | SF-268 > 100 µM | OVCAR-5 > 100 µM | SK-MEL-28 > 100 µM | ACHN > 100 µM | BT-549 > 100 µM | SK-OV-3 > 100 µM | MOLT-4 > 100 µM | DU-145 > 100 µM | OVCAR-8 > 100 µM | UACC-62 > 100 µM | MDA-N > 100 µM | K562 > 100 µM | OVCAR-3 > 100 µM | M14 > 100 µM | UO-31 > 100 µM | TK-10 > 100 µM | Hs-578T > 100 µM

CC(=O)Oc1ccc2c(c1)c1c(=O)oc(N(C)C)nc1n2Cc1ccccc1
inactive: CCRF-CEM 55.6 µM | SF-268 37.1 µM | OVCAR-5 > 100 µM | SK-MEL-28 > 100 µM | ACHN 45.3 µM | BT-549 37.2 µM | SF-539 > 71.9 µM | SK-OV-3 > 100 µM | MOLT-4 34 µM | DU-145 > 100 µM | OVCAR-8 57.8 µM | UACC-62 28.4 µM | MDA-N > 71.4 µM | K562 39.4 µM | OVCAR-3 55.1 µM | M14 > 78.7 µM | UO-31 10.8 µM | TK-10 > 100 µM | Hs-578T > 53.3 µM

COc1ccc(C2SCC(=O)N2NC(=O)C(C)Oc2ccc(Cl)cc2Cl)cc1 (centres undefined)
inactive: CAKI-1 21.8 µM | SF-268 > 100 µM | OVCAR-5 > 100 µM | SK-MEL-28 30.9 µM | ACHN 72.3 µM | BT-549 23.7 µM | SF-539 17 µM | SK-OV-3 49.2 µM | MOLT-4 28.3 µM | DU-145 53 µM | OVCAR-8 31.3 µM | UACC-62 33.9 µM | MDA-N 83 µM | K562 27 µM | OVCAR-3 66.2 µM | M14 51.2 µM | UO-31 88.5 µM | TK-10 42.6 µM | Hs-578T 34.5 µM

S=C1CSc2c(ccc3ccccc23)N1
inactive: CCRF-CEM > 100 µM | CAKI-1 > 100 µM | SF-268 > 100 µM | OVCAR-5 > 100 µM | SK-MEL-28 > 100 µM | ACHN > 100 µM | BT-549 > 100 µM | SK-OV-3 > 100 µM | MOLT-4 9.98 µM | DU-145 > 100 µM | OVCAR-8 > 100 µM | UACC-62 > 100 µM | MDA-N > 100 µM | K562 > 100 µM | OVCAR-3 > 100 µM | M14 > 100 µM | UO-31 > 100 µM | TK-10 > 100 µM | Hs-578T 51.4 µM

O=Cc1cccc2c1Oc1c(cccc1C(=O)O)S2
inactive: CAKI-1 81.1 µM | SF-268 48.3 µM | OVCAR-5 > 100 µM | SK-MEL-28 > 100 µM | ACHN 34.3 µM | BT-549 > 100 µM | SF-539 38.9 µM | SK-OV-3 61.8 µM | MOLT-4 17.3 µM | DU-145 56.1 µM | OVCAR-8 53.7 µM | UACC-62 > 100 µM | MDA-N 59.2 µM | OVCAR-3 33.3 µM | M14 > 100 µM | UO-31 58.3 µM | TK-10 > 100 µM | Hs-578T 65.9 µM

Cc1cccc2c1CC1(Cc3ccccc3C1=O)C2=O (centres undefined)
inactive: CCRF-CEM > 100 µM | SF-268 87.1 µM | OVCAR-5 > 100 µM | SK-MEL-28 > 100 µM | ACHN > 100 µM | BT-549 24.7 µM | SF-539 > 100 µM | SK-OV-3 37.6 µM | MOLT-4 > 100 µM | DU-145 > 100 µM | OVCAR-8 > 100 µM | UACC-62 75.7 µM | MDA-N > 100 µM | K562 > 100 µM | OVCAR-3 > 100 µM | M14 > 100 µM | UO-31 > 100 µM | TK-10 > 100 µM | Hs-578T 26.2 µM

COC(=O)CN(CC1O[C@@H]2OC(C)(C)O[C@@H]2C1NC(C)=O)C(=O)OCc1ccccc1 (some centres undefined)
inactive: CAKI-1 > 100 µM | SF-268 > 100 µM | OVCAR-5 > 100 µM | SK-MEL-28 > 100 µM | ACHN > 100 µM | BT-549 59.8 µM | SF-539 > 100 µM | SK-OV-3 > 100 µM | MOLT-4 > 100 µM | DU-145 > 100 µM | OVCAR-8 > 100 µM | UACC-62 > 100 µM | MDA-N > 100 µM | K562 > 100 µM | OVCAR-3 > 100 µM | M14 > 100 µM | UO-31 > 100 µM | TK-10 > 100 µM | Hs-578T > 100 µM

COc1ccc(/N=N/C(=N\c2ccccc2)c2ccc(N(CCC#N)CCC#N)cc2)cc1
inactive: CAKI-1 80.7 µM | SF-268 97.7 µM | OVCAR-5 > 100 µM | SK-MEL-28 > 100 µM | ACHN > 100 µM | BT-549 47.6 µM | SF-539 28 µM | SK-OV-3 > 100 µM | MOLT-4 28.8 µM | DU-145 76.9 µM | OVCAR-8 45.3 µM | UACC-62 51.5 µM | MDA-N 85.9 µM | K562 31.3 µM | OVCAR-3 18 µM | M14 69.8 µM | UO-31 80.9 µM | TK-10 61.1 µM | Hs-578T 45.8 µM

CC(=O)O[C@H]1CC[C@@]2(C)C(=CC[C@@H]3[C@@H]2CC[C@]2(C)c4c(C)nn(-c5ccccc5)c4C[C@@H]32)C1
inactive: CCRF-CEM 11.2 µM | CAKI-1 20.9 µM | SF-268 62.8 µM | OVCAR-5 22.2 µM | SK-MEL-28 25.5 µM | ACHN 19.5 µM | BT-549 9.95 µM | SK-OV-3 20.6 µM | MOLT-4 13.2 µM | DU-145 17 µM | OVCAR-8 40.7 µM | UACC-62 18.5 µM | MDA-N 23.1 µM | K562 2.65 µM | OVCAR-3 28.7 µM | M14 53.8 µM | UO-31 19.4 µM | TK-10 22.8 µM | Hs-578T 11.2 µM
